The supplement of paper PMC11451515

System: NOMO1
Test: cell viability relative to DMSO control; higher = less cytotoxic
Conditions: 48 h
Procedure, shortened: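 Library compounds in DMSO were pin-dosed into 1536-well plates (5 μl) holding NOMO1 or SEM (500 cells/well) or P12-Ichikawa (1000 cells/well) leukemia cells, across an 11-point threefold series of 47 μM to 0.79 nM. Each cell line had been adapted for at least four passages in each medium. CellTiter-Glo One luminescence was read after 48 h at 37°C. Viability is the per-plate percentage relative to DMSO wells, with cell-free wells as background.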

[1] = HPLM + 10% dialyzed FBS, 0.000781 µM
[2] = HPLM + 10% dialyzed FBS, 0.00234 µM
[3] = HPLM + 10% dialyzed FBS, 0.00702 µM
[4] = HPLM + 10% dialyzed FBS, 0.0211 µM
[5] = HPLM + 10% dialyzed FBS, 0.0632 µM
[6] = HPLM + 10% dialyzed FBS, 0.19 µM
[7] = HPLM + 10% dialyzed FBS, 0.569 µM
[8] = HPLM + 10% dialyzed FBS, 1.71 µM
[9] = HPLM + 10% dialyzed FBS, 5.12 µM
[10] = HPLM + 10% dialyzed FBS, 15.4 µM
[11] = HPLM + 10% dialyzed FBS, 46.1 µM
[12] = RPMI 5 mM glucose + 10% FBS, 0.000781 µM
[13] = RPMI 5 mM glucose + 10% FBS, 0.00234 µM
[14] = RPMI 5 mM glucose + 10% FBS, 0.00702 µM
[15] = RPMI 5 mM glucose + 10% FBS, 0.0211 µM
[16] = RPMI 5 mM glucose + 10% FBS, 0.0632 µM
[17] = RPMI 5 mM glucose + 10% FBS, 0.19 µM
[18] = RPMI 5 mM glucose + 10% FBS, 0.569 µM
[19] = RPMI 5 mM glucose + 10% FBS, 1.71 µM
[20] = RPMI 5 mM glucose + 10% FBS, 5.12 µM
[21] = RPMI 5 mM glucose + 10% FBS, 15.4 µM
[22] = RPMI 5 mM glucose + 10% FBS, 46.1 µM
[23] = RPMI 5 mM glucose + 10% dialyzed FBS, 0.000781 µM
[24] = RPMI 5 mM glucose + 10% dialyzed FBS, 0.00234 µM
[25] = RPMI 5 mM glucose + 10% dialyzed FBS, 0.00702 µM
[26] = RPMI 5 mM glucose + 10% dialyzed FBS, 0.0211 µM
[27] = RPMI 5 mM glucose + 10% dialyzed FBS, 0.0632 µM
[28] = RPMI 5 mM glucose + 10% dialyzed FBS, 0.19 µM
[29] = RPMI 5 mM glucose + 10% dialyzed FBS, 0.569 µM
[30] = RPMI 5 mM glucose + 10% dialyzed FBS, 1.71 µM
[31] = RPMI 5 mM glucose + 10% dialyzed FBS, 5.12 µM
[32] = RPMI 5 mM glucose + 10% dialyzed FBS, 15.4 µM
[33] = RPMI 5 mM glucose + 10% dialyzed FBS, 46.1 µM

CC1(C)CC(=O)c2c(C(F)(F)F)nn(-c3ccc(C(N)=O)c(NC4CCC(OC(=O)CN)CC4)c3)c2C1 (configuration not stated)
cell viability [1]: 94.8%
cell viability [2]: 92.8%
cell viability [3]: 104%
cell viability [4]: 99%
cell viability [5]: 102%
cell viability [6]: 84.5%
cell viability [7]: 27.3%
cell viability [8]: 17.8%
cell viability [9]: 13.5%
cell viability [10]: 17.5%
cell viability [11]: 15.7%
cell viability [12]: 92.5%
cell viability [13]: 110%
cell viability [14]: 92.4%
cell viability [15]: 92.9%
cell viability [16]: 84.2%
cell viability [17]: 88.9%
cell viability [18]: 20.6%
cell viability [19]: 11.2%
cell viability [20]: 9.75%
cell viability [21]: 9.88%
cell viability [22]: 11.1%
cell viability [23]: 94.4%
cell viability [24]: 103%
cell viability [25]: 109%
cell viability [26]: 93.2%
cell viability [27]: 89.2%
cell viability [28]: 76%
cell viability [29]: 21.3%
cell viability [30]: 15.8%
cell viability [31]: 13.4%
cell viability [32]: 14.1%
cell viability [33]: 15.9%

CN(C(=O)c1ccc(F)cc1C(F)(F)F)C1CCN(c2nnc(-c3ccnn3C)c3ccccc23)CC1
cell viability [1]: 61.1%
cell viability [2]: 79%
cell viability [3]: 87.1%
cell viability [4]: 83.2%
cell viability [5]: 102%
cell viability [6]: 97.8%
cell viability [7]: 83.4%
cell viability [8]: 95.2%
cell viability [9]: 85.2%
cell viability [10]: 88.8%
cell viability [11]: 77.9%
cell viability [12]: 66%
cell viability [13]: 71.6%
cell viability [14]: 69.4%
cell viability [15]: 83.3%
cell viability [16]: 82.3%
cell viability [17]: 84.8%
cell viability [18]: 11.9%
cell viability [19]: 82.8%
cell viability [20]: 79.6%
cell viability [21]: 76.6%
cell viability [22]: 75%
cell viability [23]: 76%
cell viability [24]: 85.4%
cell viability [25]: 79.9%
cell viability [26]: 86.8%
cell viability [27]: 77.6%
cell viability [28]: 86.3%
cell viability [29]: 77.1%
cell viability [30]: 80.7%
cell viability [31]: 82.2%
cell viability [32]: 78%
cell viability [33]: 41.9%

CN(C)CCC=C1C2=C(C=CC=C2)\C=C/C3=C1C=CC=C3
cell viability [12]: 108%
cell viability [13]: 100%
cell viability [14]: 95.5%
cell viability [15]: 98%
cell viability [16]: 95.9%
cell viability [17]: 90.3%
cell viability [18]: 98.7%
cell viability [19]: 106%
cell viability [20]: 94%
cell viability [21]: 77%
cell viability [22]: 16.4%
cell viability [23]: 98.7%
cell viability [24]: 99%
cell viability [25]: 107%
cell viability [26]: 104%
cell viability [27]: 114%
cell viability [28]: 103%
cell viability [29]: 107%
cell viability [30]: 95.3%
cell viability [31]: 99.3%
cell viability [32]: 66.6%
cell viability [33]: 21.2%

O=C(NC1CC1)c1cccc(-c2ccc3c(NC(=O)C4CC4)n[nH]c3c2)c1
cell viability [1]: 101%
cell viability [2]: 109%
cell viability [3]: 117%
cell viability [4]: 121%
cell viability [5]: 119%
cell viability [6]: 109%
cell viability [7]: 119%
cell viability [8]: 118%
cell viability [9]: 122%
cell viability [10]: 87.6%
cell viability [11]: 38.3%
cell viability [12]: 129%
cell viability [13]: 113%
cell viability [14]: 122%
cell viability [15]: 139%
cell viability [16]: 125%
cell viability [17]: 115%
cell viability [18]: 111%
cell viability [19]: 112%
cell viability [20]: 123%
cell viability [21]: 98.7%
cell viability [22]: 20.2%
cell viability [23]: 118%
cell viability [24]: 124%
cell viability [25]: 123%
cell viability [26]: 130%
cell viability [27]: 124%
cell viability [28]: 129%
cell viability [29]: 110%
cell viability [30]: 122%
cell viability [31]: 132%
cell viability [32]: 99.7%
cell viability [33]: 35.3%

CCOC(=O)c1ncn2c1CN(C)C(=O)c1cc(F)ccc1-2
cell viability [1]: 131%
cell viability [2]: 124%
cell viability [3]: 124%
cell viability [4]: 117%
cell viability [5]: 123%
cell viability [6]: 120%
cell viability [7]: 109%
cell viability [8]: 110%
cell viability [9]: 108%
cell viability [10]: 90%
cell viability [11]: 73.6%
cell viability [12]: 116%
cell viability [13]: 130%
cell viability [14]: 118%
cell viability [15]: 111%
cell viability [16]: 99.6%
cell viability [17]: 104%
cell viability [18]: 106%
cell viability [19]: 120%
cell viability [20]: 120%
cell viability [21]: 108%
cell viability [22]: 76.8%
cell viability [23]: 122%
cell viability [24]: 109%
cell viability [25]: 110%
cell viability [26]: 124%
cell viability [27]: 113%
cell viability [28]: 107%
cell viability [29]: 128%
cell viability [30]: 95.7%
cell viability [31]: 116%
cell viability [32]: 103%
cell viability [33]: 78.8%

CC1=CC2=C(O1)C(=C3OC(=O)\C=C(C)/C3=C2)C
cell viability [1]: 79.8%
cell viability [2]: 98.7%
cell viability [3]: 90.9%
cell viability [4]: 114%
cell viability [5]: 104%
cell viability [6]: 123%
cell viability [7]: 125%
cell viability [8]: 121%
cell viability [9]: 95.2%
cell viability [10]: 124%
cell viability [11]: 116%
cell viability [12]: 114%
cell viability [13]: 102%
cell viability [14]: 112%
cell viability [15]: 115%
cell viability [16]: 125%
cell viability [17]: 108%
cell viability [18]: 114%
cell viability [19]: 102%
cell viability [20]: 113%
cell viability [21]: 106%
cell viability [22]: 106%
cell viability [23]: 91.2%
cell viability [24]: 92.2%
cell viability [25]: 99.8%
cell viability [26]: 102%
cell viability [27]: 107%
cell viability [28]: 98%
cell viability [29]: 112%
cell viability [30]: 105%
cell viability [31]: 114%
cell viability [32]: 102%
cell viability [33]: 114%
